Laboratory results reported in patent US8486977B2, “1,2,3-triazole derivatives for use as stearoyl-CoA desaturase inhibitors” (GlaxoSmithKline LLC, priority 2007, dated 2013).
pIC50: −log10 of the molar value.

Target: T1, SCD (Rattus norvegicus, UniProt P07308)
T1 construct: SCD-containing rat microsomes (2 μg protein); from tissue
T1 sequence (P07308 1-358): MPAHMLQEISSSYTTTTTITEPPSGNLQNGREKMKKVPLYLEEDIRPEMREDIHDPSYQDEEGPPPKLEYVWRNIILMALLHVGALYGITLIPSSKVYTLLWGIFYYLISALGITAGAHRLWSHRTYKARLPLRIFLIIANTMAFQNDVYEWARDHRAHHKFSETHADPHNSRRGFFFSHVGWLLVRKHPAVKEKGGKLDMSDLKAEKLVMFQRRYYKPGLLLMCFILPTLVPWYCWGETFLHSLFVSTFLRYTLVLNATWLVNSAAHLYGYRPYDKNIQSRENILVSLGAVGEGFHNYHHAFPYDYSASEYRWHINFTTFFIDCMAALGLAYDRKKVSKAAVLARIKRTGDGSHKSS
Experiment: in vitro assay for SCD activity based on production of [3H]H2O
Type: biochemical
Conditions: SCD-containing rat microsomes (2 μg protein), [9,10-3H] stearoyl Coenzyme A 1 μM, 6 min incubation
Procedure: The compounds of the present invention may be analysed in vitro for SCD activity using an assay based on the production of [^3H]H2O, which is released during the enzyme-catalyzed generation of the monounsaturated fatty acyl CoA product. The assay is performed in a 96-well filtration plates. The titrated substrate used in the assay is the [9,10-^3H] stearoyl Coenzyme A. After incubation for 6 minutes of SCD-containing rat microsomes (2 μg protein) and substrate (1 μM), the labelled fatty acid acyl-CoA species and microsomes are absorbed with charcoal and separated from [^3H]H2O by centrifugation. The formation of [^3H]H2O is used as a measure of SCD activity. Compounds at concentrations starting at 10 μM to 0.1 nM or vehicle (DMSO) are preincubated for 5 minutes with the microsomes before addition of the substrate. The concentration-responses are fitted with sigmoidal curves to obtain IC50 values.

Compound	pIC50
COC(=O)c1cc(NC(=O)c2nnn(Cc3ccccc3)c2C)cc(C(=O)OC)c1 [Dimethyl 5-({[5-methyl-1-(phenylmethyl)-lH-1,2,3-triazol-4-yl]carbonyl}amino)-1,3-benzenedicarboxylate]	< 5.00
CNC(=O)c1cccc(NC(=O)c2nnn(Cc3ccc(Cl)c(Cl)c3)c2C)c1C [1-[(3,4-dichlorophenyl)methyl]-5-methyl-N-{2-methyl-3-[(methylamino)carbonyl]phenyl}-1H-1,2,3-triazole-4-carboxamide]	< 5.00
COC(=O)c1ccc(NC(=O)c2nnn(Cc3ccccc3)c2C)cc1C(=O)OC [Dimethyl 4-({[5-methyl-1-(phenylmethyl)-lH-1,2,3-triazol-4-yl]carbonyl}amino)-1,2-benzenedicarboxylate]	< 5.00
CNC(=O)c1cc(NC(=O)c2nnn(Cc3ccc(Cl)c(Cl)c3)c2C)cc(C(=O)NC)c1 [5-[({1-[(3,4-Dichlorophenyl)methyl]-5-methyl-1H-1,2,3-triazol-4-yl}carbonyl)amino]-N,N′-dimethyl-1,3-benzenedicarboxamide]	< 5.00
Cc1c(C(=O)Nc2ccc(OCCC(C)C)cc2)nnn1Cc1ccc(-c2ccccc2)cc1 [1-(4-Biphenylylmethyl)-5-methyl-N-{4-[(3-methylbutyl)oxy]phenyl}-1H-1,2,3-triazole-4-carboxamide]	< 5.00

Results, then the compound that gave them:

pIC50	Compound
< 5.00	COC(=O)c1cc(NC(=O)c2nnn(Cc3ccc(F)cc3)c2C)cc(C(=O)OC)c1 [Dimethyl 5-[({1-[(4-fluorophenyl)methyl]-5-methyl-1H-1,2,3-triazol-4-yl}carbonyl)amino]-1,3-benzenedicarboxylate]
< 5.00	COC(=O)c1cc(NC(=O)c2nnn(Cc3ccc(Cl)c(Cl)c3)c2C)ccc1OC [Methyl 5-[({1-[(3,4-dichlorophenyl)methyl]-5-methyl-1H-1,2,3-triazol-4-yl}carbonyl)amino]-2-(methyloxy)benzoate]
< 5.00	COC(=O)c1cc(NC(=O)c2nnn(Cc3ccc(Cl)c(Cl)c3)c2C)cc(C(=O)OC)c1 [Dimethyl 5-[({1-[(3,4-dichlorophenyl)methyl]-5-methyl-1H-1,2,3-triazol-4-yl}carbonyl)amino]-1,3-benzenedicarboxylate]
< 5.00	COC(=O)c1cc(NC(=O)c2nnn(Cc3cccc(Cl)c3)c2C)cc(C(=O)OC)c1 [Dimethyl 5-[({1-[(3-chlorophenyl)methyl]-5-methyl-1H-1,2,3-triazol-4-yl}carbonyl)amino]-1,3-benzenedicarboxylate]
< 5.00	COC(=O)c1cccc(NC(=O)c2nnn(Cc3ccc(Cl)c(Cl)c3)c2C)c1C [Methyl 3-[({1-[(3,4-dichlorophenyl)methyl]-5-methyl-1H-1,2,3-triazol-4-yl}carbonyl)amino]-2-methylbenzoate]
